Reference: ChEMBL document CHEMBL1909046, “DrugMatrix in vitro pharmacology data”

Tests used:
[1] = target: C-C chemokine receptor type 2 (Homo sapiens, UniProt P41597); assay type: cell membranes, CHO-K1, Membrane; conditions: cho-k1; further: in other assays of this panel Not Active means under 50% inhibition at 10 µM
D(3) dopamine receptor = D(3) dopamine receptor (Homo sapiens, UniProt P35462); assay: DRUGMATRIX: Dopamine D3 radioligand binding (ligand: [3H] Spiperone); assay type: cell membranes, CHO, Membrane; conditions: cho
Chain of D(3) dopamine receptor (P35462 whole entry): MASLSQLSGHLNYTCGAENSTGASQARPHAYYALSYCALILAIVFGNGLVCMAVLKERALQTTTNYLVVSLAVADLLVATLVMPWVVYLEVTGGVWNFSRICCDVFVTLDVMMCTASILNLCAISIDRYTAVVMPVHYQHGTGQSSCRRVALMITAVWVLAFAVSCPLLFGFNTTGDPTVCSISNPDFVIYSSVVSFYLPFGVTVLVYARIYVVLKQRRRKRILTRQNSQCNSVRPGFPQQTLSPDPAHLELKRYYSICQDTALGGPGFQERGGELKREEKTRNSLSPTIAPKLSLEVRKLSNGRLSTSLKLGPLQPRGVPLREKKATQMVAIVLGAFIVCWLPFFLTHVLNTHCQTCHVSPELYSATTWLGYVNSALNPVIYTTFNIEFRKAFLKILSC

D(4) dopamine receptor = target: T1, D(4) dopamine receptor (Homo sapiens, UniProt P21917); assay: DRUGMATRIX: Dopamine D4.2 radioligand binding (ligand: [3H] Spiperone); assay type: cell membranes, CHO-K1, Membrane; conditions: cho-k1; Not Active = under 50% inhibition at 10 µM
T1 sequence (P21917 whole entry): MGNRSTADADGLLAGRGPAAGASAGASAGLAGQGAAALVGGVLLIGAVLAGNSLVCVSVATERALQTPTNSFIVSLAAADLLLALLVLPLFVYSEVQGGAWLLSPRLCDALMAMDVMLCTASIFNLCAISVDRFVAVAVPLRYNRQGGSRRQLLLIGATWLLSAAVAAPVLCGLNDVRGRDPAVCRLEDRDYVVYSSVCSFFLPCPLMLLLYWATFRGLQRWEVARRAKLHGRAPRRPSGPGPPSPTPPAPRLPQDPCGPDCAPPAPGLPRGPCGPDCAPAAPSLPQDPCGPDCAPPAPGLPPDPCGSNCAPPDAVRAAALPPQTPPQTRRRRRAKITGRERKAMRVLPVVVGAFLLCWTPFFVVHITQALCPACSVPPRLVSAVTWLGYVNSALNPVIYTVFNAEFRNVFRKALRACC

[2] = DRUGMATRIX: GABAA, Muscimol, Central radioligand binding (ligand: [3H] Muscimol); assay type: cell membranes, Rattus norvegicus, Wistar, Brain, Membrane; conditions: Not Active = under 50% inhibition at 10 µM
Caspase-1 = target: T2, Caspase-1 (Homo sapiens, UniProt P29466); design: species or system Escherichia coli;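 further: Caspase-1 enzyme inhibition assay with a peptide substrate; in other assays of this panel Not Active means under 50% inhibition at 10 µM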
T2 sequence (P29466 whole entry): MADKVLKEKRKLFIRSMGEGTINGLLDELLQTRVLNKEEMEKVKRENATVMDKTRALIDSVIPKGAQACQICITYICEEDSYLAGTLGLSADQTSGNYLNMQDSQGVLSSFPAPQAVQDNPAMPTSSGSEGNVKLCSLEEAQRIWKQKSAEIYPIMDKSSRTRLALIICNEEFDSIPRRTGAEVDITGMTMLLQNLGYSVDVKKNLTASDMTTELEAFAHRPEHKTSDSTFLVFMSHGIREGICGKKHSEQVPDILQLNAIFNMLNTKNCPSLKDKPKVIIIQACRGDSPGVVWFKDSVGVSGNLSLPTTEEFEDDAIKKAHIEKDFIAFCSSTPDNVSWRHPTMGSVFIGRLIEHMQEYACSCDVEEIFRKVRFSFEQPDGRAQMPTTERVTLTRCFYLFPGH

Cathepsin G = target: T3, Cathepsin G (Homo sapiens, UniProt P08311); assay type: tissue-based; conditions: neutrophil;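 further: inhibition of Cathepsin G enzyme activity, tested on an AMC-conjugated peptide substrate; in other assays of this panel Not Active means under 50% inhibition at 10 µM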
T3 sequence (P08311 whole entry): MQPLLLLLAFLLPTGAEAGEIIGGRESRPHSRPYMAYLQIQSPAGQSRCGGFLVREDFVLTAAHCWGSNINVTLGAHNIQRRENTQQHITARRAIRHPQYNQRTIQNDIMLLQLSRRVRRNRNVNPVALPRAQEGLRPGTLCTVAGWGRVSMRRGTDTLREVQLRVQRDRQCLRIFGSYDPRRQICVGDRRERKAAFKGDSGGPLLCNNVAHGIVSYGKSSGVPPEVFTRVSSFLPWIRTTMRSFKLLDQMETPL

[3] = target: Mitogen-activated protein kinase 14 (Homo sapiens, UniProt Q16539); design: species or system Escherichia coli;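 further: inhibition of p38alpha enzyme activity in a biochemical kinase assay, with myelin basic protein serving as substrate; in other assays of this panel Not Active means under 50% inhibition at 10 µM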
Chain of Mitogen-activated protein kinase 14 (Q16539 whole entry): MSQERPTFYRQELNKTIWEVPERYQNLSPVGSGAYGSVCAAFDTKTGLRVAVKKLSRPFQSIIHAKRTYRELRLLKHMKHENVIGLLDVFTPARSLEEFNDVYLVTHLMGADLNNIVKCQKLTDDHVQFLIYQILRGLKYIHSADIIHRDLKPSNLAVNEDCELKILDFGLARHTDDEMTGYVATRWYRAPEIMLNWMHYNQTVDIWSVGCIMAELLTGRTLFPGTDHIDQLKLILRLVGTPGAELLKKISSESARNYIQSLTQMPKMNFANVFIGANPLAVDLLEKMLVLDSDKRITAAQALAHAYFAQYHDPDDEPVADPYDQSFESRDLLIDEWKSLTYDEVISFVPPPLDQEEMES

[4] = target: T4, Receptor-type tyrosine-protein phosphatase C (Homo sapiens, UniProt P08575); design: species or system Escherichia coli
T4 sequence (P08575 whole entry): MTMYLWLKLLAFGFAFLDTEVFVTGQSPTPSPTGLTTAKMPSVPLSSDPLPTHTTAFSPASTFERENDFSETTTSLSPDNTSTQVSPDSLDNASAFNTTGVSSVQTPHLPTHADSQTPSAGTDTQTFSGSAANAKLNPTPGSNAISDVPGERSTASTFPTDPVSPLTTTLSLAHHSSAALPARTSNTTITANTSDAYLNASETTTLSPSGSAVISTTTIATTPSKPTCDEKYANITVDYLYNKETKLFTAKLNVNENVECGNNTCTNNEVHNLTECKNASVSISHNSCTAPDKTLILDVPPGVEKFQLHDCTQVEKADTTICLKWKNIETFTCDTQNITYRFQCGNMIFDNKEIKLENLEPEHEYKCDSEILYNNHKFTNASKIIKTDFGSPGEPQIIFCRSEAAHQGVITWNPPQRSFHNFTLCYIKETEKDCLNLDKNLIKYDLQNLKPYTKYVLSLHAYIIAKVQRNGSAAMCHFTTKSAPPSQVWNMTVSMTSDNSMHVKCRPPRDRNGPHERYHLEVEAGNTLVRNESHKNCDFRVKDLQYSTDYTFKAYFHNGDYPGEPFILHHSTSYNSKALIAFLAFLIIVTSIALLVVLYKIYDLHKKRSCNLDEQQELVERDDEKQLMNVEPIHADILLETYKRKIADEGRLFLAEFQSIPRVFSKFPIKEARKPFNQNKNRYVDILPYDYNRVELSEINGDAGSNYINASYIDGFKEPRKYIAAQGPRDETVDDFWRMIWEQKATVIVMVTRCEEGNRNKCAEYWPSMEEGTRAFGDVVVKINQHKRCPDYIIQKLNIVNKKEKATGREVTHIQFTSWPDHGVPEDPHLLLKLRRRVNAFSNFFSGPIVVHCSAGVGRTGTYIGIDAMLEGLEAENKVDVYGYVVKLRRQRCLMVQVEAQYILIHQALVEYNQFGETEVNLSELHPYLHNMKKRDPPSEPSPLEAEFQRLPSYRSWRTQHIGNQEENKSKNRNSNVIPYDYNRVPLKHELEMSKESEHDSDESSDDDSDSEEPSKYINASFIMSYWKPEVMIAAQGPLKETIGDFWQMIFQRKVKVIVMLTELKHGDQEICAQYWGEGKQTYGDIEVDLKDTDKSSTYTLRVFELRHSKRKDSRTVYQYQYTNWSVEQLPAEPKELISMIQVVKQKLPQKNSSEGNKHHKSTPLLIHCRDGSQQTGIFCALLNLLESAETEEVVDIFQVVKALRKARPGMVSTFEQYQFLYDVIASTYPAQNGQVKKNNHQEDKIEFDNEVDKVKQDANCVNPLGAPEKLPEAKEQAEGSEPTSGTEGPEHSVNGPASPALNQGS

Acetylcholinesterase = Acetylcholinesterase (Homo sapiens, UniProt P22303); assay: DRUGMATRIX: Acetylcholinesterase enzyme inhibition (substrate: acetylthiocholine); assay type: cell-based, HEK293; conditions: hek293; Not Active = under 50% inhibition at 10 µM
Chain of Acetylcholinesterase (P22303 whole entry): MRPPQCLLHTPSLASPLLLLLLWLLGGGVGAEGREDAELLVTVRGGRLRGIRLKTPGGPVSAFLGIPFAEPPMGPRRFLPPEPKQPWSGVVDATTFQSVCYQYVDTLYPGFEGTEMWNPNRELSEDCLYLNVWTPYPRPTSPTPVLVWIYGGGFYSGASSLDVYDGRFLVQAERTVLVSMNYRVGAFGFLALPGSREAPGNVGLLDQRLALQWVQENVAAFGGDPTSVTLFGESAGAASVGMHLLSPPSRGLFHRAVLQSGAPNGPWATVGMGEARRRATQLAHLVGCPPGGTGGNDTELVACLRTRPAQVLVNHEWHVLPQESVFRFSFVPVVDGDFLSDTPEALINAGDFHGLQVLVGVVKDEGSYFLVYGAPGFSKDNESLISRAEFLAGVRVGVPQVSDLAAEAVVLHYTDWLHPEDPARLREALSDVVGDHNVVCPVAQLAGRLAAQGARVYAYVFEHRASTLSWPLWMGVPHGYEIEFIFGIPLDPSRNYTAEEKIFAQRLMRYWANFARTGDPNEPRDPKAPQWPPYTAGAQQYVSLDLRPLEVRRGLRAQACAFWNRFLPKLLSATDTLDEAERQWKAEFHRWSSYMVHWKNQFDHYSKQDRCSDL

Chain of C-C chemokine receptor type 2 (P41597 whole entry): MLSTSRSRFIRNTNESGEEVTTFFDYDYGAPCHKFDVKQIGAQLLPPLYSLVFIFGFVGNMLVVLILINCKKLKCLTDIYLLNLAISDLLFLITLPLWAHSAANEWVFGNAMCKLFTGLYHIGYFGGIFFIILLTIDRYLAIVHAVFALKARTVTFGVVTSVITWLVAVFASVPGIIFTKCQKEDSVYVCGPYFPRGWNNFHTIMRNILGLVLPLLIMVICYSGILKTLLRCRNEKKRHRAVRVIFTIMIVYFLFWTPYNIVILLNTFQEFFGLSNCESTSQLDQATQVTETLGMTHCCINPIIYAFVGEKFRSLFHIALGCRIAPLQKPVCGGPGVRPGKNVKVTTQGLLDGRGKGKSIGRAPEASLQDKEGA

Brc1ccccc1 [BROMOBENZENE]
Not Active: IC50 [1] | IC50 (D(3) dopamine receptor) | IC50 (D(4) dopamine receptor) | IC50 [2] | Ki [2] | IC50 (Caspase-1) | IC50 (Cathepsin G) | IC50 [3] | IC50 [4] | IC50 (Acetylcholinesterase)

COc1ccc2cc(CC(=O)O)ccc2c1
Not Active: IC50 [1] | IC50 (D(3) dopamine receptor) | IC50 (D(4) dopamine receptor) | IC50 [2] | Ki [2] | IC50 (Caspase-1) | IC50 (Cathepsin G) | IC50 [3] | IC50 [4] | IC50 (Acetylcholinesterase)

CC[N+](CC)(CC)CCOc1cccc(OCC[N+](CC)(CC)CC)c1OCC[N+](CC)(CC)CC.[I-].[I-].[I-] [GALLAMINE TRIETHIODIDE]
Not Active: IC50 [1] | IC50 (D(3) dopamine receptor) | IC50 (D(4) dopamine receptor) | IC50 [2] | Ki [2] | IC50 (Caspase-1) | IC50 (Cathepsin G) | IC50 [3] | IC50 [4] | IC50 (Acetylcholinesterase)

CCCSc1ccc2nc(NC(=O)OC)[nH]c2c1 [ALBENDAZOLE]
Not Active: IC50 [1] | IC50 (D(3) dopamine receptor) | IC50 (D(4) dopamine receptor) | IC50 [2] | Ki [2] | IC50 (Caspase-1) | IC50 (Cathepsin G) | IC50 [3] | IC50 [4] | IC50 (Acetylcholinesterase)

OCc1ccccc1 [BENZYL ALCOHOL]
Not Active: IC50 [1] | IC50 (D(3) dopamine receptor) | IC50 (D(4) dopamine receptor) | IC50 [2] | Ki [2] | IC50 (Caspase-1) | IC50 (Cathepsin G) | IC50 [3] | IC50 [4] | IC50 (Acetylcholinesterase)

CC1(C)[C@@H](O[C@H]2O[C@H](C(=O)O)[C@@H](O)[C@H](O)[C@H]2O[C@@H]2O[C@H](C(=O)O)[C@@H](O)[C@H](O)[C@H]2O)CC[C@]2(C)[C@H]3C(=O)C=C4[C@@H]5C[C@@](C)(C(=O)O)CC[C@]5(C)CC[C@@]4(C)[C@]3(C)CC[C@@H]12 [GLYCYRRHIZIN]
Not Active: IC50 [1] | IC50 (D(3) dopamine receptor) | IC50 (D(4) dopamine receptor) | IC50 [2] | Ki [2] | IC50 (Caspase-1) | IC50 (Cathepsin G) | IC50 [3] | IC50 [4] | IC50 (Acetylcholinesterase)

O=P1(NCCCl)OCCCN1CCCl (stereo not drawn) [IFOSFAMIDE]
Not Active: IC50 [1] | IC50 (D(3) dopamine receptor) | IC50 (D(4) dopamine receptor) | IC50 [2] | Ki [2] | IC50 (Caspase-1) | IC50 (Cathepsin G) | IC50 [3] | IC50 [4] | IC50 (Acetylcholinesterase)

CCc1cccc2c3c([nH]c12)C(CC)(CC(=O)O)OCC3 (stereo not drawn) [ETODOLAC]
Not Active: IC50 [1] | IC50 (D(3) dopamine receptor) | IC50 (D(4) dopamine receptor) | IC50 [2] | Ki [2] | IC50 (Caspase-1) | IC50 (Cathepsin G) | IC50 [3] | IC50 [4] | IC50 (Acetylcholinesterase)

COCc1c(C(C)C)nc(C(C)C)c(/C=C/[C@@H](O)C[C@@H](O)CC(=O)O)c1-c1ccc(F)cc1 [CERIVASTATIN]
Not Active: IC50 [1] | IC50 (D(3) dopamine receptor) | IC50 (D(4) dopamine receptor) | IC50 [2] | Ki [2] | IC50 (Caspase-1) | IC50 (Cathepsin G) | IC50 [3] | IC50 [4] | IC50 (Acetylcholinesterase)

CC1(C)S[C@@H]2[C@H](NC(=O)[C@H](N)c3ccc(O)cc3)C(=O)N2[C@H]1C(=O)O [AMOXICILLIN]
Not Active: IC50 [1] | IC50 (D(3) dopamine receptor) | IC50 (D(4) dopamine receptor) | IC50 [2] | Ki [2] | IC50 (Caspase-1) | IC50 (Cathepsin G) | IC50 [3] | IC50 [4] | IC50 (Acetylcholinesterase)

COc1ccc([C@@H]2Sc3ccccc3N(CCN(C)C)C(=O)[C@@H]2OC(C)=O)cc1 [DILTIAZEM]
Not Active: IC50 [1] | IC50 (D(3) dopamine receptor) | IC50 (D(4) dopamine receptor) | IC50 [2] | Ki [2] | IC50 (Caspase-1) | IC50 (Cathepsin G) | IC50 [3] | IC50 [4] | IC50 (Acetylcholinesterase)

C/C=C1\[C@H]2C=C(C)C[C@]1(N)c1ccc(=O)[nH]c1C2 [HUPERZINE A]
Not Active: IC50 [1] | IC50 (D(3) dopamine receptor) | IC50 (D(4) dopamine receptor) | IC50 [2] | Ki [2] | IC50 (Caspase-1) | IC50 (Cathepsin G) | IC50 [3] | IC50 [4]

CNC(=O)Oc1ccc2c(c1)[C@]1(C)CCN(C)[C@@H]1N2C [PHYSOSTIGMINE]
Not Active: IC50 [1] | IC50 (D(3) dopamine receptor) | IC50 (D(4) dopamine receptor) | IC50 [2] | Ki [2] | IC50 (Caspase-1) | IC50 (Cathepsin G) | IC50 [3] | IC50 [4]
